PubChem BioAssay AID2060502 (Molecular Pharmacology Branch, DTP, NCI, 2025)
Values belong to the compound of their own block, whether it stands above or below them.

Tested on: 885724-159-R-J1-PDC complex spheroid viability
Assay: Anticancer human tumor 885724-159-R-J1-PDC patient-derived pancreatic adenocarcinoma cell line growth inhibition [GQUAD]
Details: for IC50: curve of first compound; for viability, T/C: stronger effect = lower value
Procedure, shortened: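 Tumor cells were grown as complex spheroids with HUVEC endothelial cells and mesenchymal stem cells as stroma. G-quadruplex stabilizers were combined with targeted agents over half-log dilutions from near the clinical Cmax, or from 10 microM.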

[1] = second compound 0.0316 µM, first compound 0.0316 µM
[2] = second compound 0.0316 µM, first compound 0.1 µM
[3] = second compound 0.0316 µM, first compound 0.316 µM
[4] = second compound 0.0316 µM, first compound 1 µM
[5] = second compound 0.0316 µM, first compound 3.16 µM
[6] = second compound 0.0316 µM, first compound 10 µM
[7] = second compound 0.1 µM, first compound 0.0316 µM
[8] = second compound 0.1 µM, first compound 0.1 µM
[9] = second compound 0.1 µM, first compound 0.316 µM
[10] = second compound 0.1 µM, first compound 1 µM
[11] = second compound 0.1 µM, first compound 3.16 µM
[12] = second compound 0.1 µM, first compound 10 µM
[13] = second compound 0.316 µM, first compound 0.0316 µM
[14] = second compound 0.316 µM, first compound 0.1 µM
[15] = second compound 0.316 µM, first compound 0.316 µM
[16] = second compound 0.316 µM, first compound 1 µM
[17] = second compound 0.316 µM, first compound 3.16 µM
[18] = second compound 0.316 µM, first compound 10 µM
[19] = second compound 1 µM, first compound 0.0316 µM
[20] = second compound 1 µM, first compound 0.1 µM
[21] = second compound 1 µM, first compound 0.316 µM
[22] = second compound 1 µM, first compound 1 µM
[23] = second compound 1 µM, first compound 3.16 µM
[24] = second compound 1 µM, first compound 10 µM
[25] = second compound 3.16 µM, first compound 0.0316 µM
[26] = second compound 3.16 µM, first compound 0.1 µM
[27] = second compound 3.16 µM, first compound 0.316 µM
[28] = second compound 3.16 µM, first compound 1 µM
[29] = second compound 3.16 µM, first compound 3.16 µM
[30] = second compound 3.16 µM, first compound 10 µM
[31] = second compound 10 µM, first compound 0.0316 µM
[32] = second compound 10 µM, first compound 0.1 µM
[33] = second compound 10 µM, first compound 0.316 µM
[34] = second compound 10 µM, first compound 1 µM
[35] = second compound 10 µM, first compound 3.16 µM
[36] = second compound 10 µM, first compound 10 µM
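Also: spheroids exposed to agents for seven days before readout.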
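For viability, T/C in this document: percent of vehicle control viability where 100% = DMSO wells.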

SMILES: C=CC(=O)N1CCN(c2nc(=O)n(-c3c(C)ccnc3C(C)C)c3nc(-c4c(O)cccc4F)c(F)cc23)C(C)C1 (stereo unspecified) + Cc1[nH]c2ccc(F)cc2c1-c1nc2c3cccnc3c3ncccc3c2[nH]1
- IC50 (second compound 0.0316 µM): > 10 µM
- IC50 (second compound 0.1 µM): > 10 µM
- IC50 (second compound 0.316 µM): > 10 µM
- IC50 (second compound 1 µM): > 10 µM
- IC50 (second compound 3.16 µM): < 0.0316 µM
- IC50 (second compound 10 µM): > 10 µM
- viability, T/C [1]: 97.3%
- viability, T/C [2]: 106%
- viability, T/C [3]: 98.4%
- viability, T/C [4]: 104%
- viability, T/C [5]: 98%
- viability, T/C [6]: 97.2%
- viability, T/C [7]: 105%
- viability, T/C [8]: 97.6%
- viability, T/C [9]: 98.7%
- viability, T/C [10]: 106%
- viability, T/C [11]: 109%
- viability, T/C [12]: 99.2%
- viability, T/C [13]: 95.5%
- viability, T/C [14]: 105%
- viability, T/C [15]: 92.8%
- viability, T/C [16]: 94.3%
- viability, T/C [17]: 122%
- viability, T/C [18]: 88.6%
- viability, T/C [19]: 73.7%
- viability, T/C [20]: 71.9%
- viability, T/C [21]: 69.7%
- viability, T/C [22]: 73.6%
- viability, T/C [23]: 78.7%
- viability, T/C [24]: 73.7%
- viability, T/C [25]: 45.9%
- viability, T/C [26]: 29.1%
- viability, T/C [27]: 33.4%
- viability, T/C [28]: 38.5%
- viability, T/C [29]: 33.4%
- viability, T/C [30]: 27.8%
- viability, T/C [31]: 64.3%
- viability, T/C [32]: 70.3%
- viability, T/C [33]: 72.1%
- viability, T/C [34]: 79.2%
- viability, T/C [35]: 73%
- viability, T/C [36]: 65.9%

- IC50 (second compound 0.0316 µM): 6.01 µM
- IC50 (second compound 0.1 µM): 6.88 µM
- IC50 (second compound 0.316 µM): 6.19 µM
- IC50 (second compound 1 µM): 4.5 µM
- IC50 (second compound 3.16 µM): 2.33 µM
- IC50 (second compound 10 µM): 1.28 µM
SMILES: C#Cc1c(F)ccc2cc(O)cc(-c3ncc4c(N5CC6CCC(C5)N6)nc(OCC56CCCN5CC(F)C6)nc4c3F)c12 (stereo unspecified) + Cc1cnc(CNC(=O)c2c(=O)c3ccc(N4CCCN(C)CC4)nc3n3c2sc2ccccc23)cn1
- viability, T/C [1]: 91.6%
- viability, T/C [2]: 120%
- viability, T/C [3]: 117%
- viability, T/C [4]: 103%
- viability, T/C [5]: 67%
- viability, T/C [6]: 36.6%
- viability, T/C [7]: 106%
- viability, T/C [8]: 110%
- viability, T/C [9]: 100%
- viability, T/C [10]: 107%
- viability, T/C [11]: 71.4%
- viability, T/C [12]: 39.7%
- viability, T/C [13]: 110%
- viability, T/C [14]: 100%
- viability, T/C [15]: 90.8%
- viability, T/C [16]: 94.5%
- viability, T/C [17]: 69.5%
- viability, T/C [18]: 35%
- viability, T/C [19]: 92.8%
- viability, T/C [20]: 81.3%
- viability, T/C [21]: 84.2%
- viability, T/C [22]: 75.3%
- viability, T/C [23]: 59.9%
- viability, T/C [24]: 28.4%
- viability, T/C [25]: 77.3%
- viability, T/C [26]: 70.2%
- viability, T/C [27]: 70%
- viability, T/C [28]: 62.9%
- viability, T/C [29]: 45.3%
- viability, T/C [30]: 19.1%
- viability, T/C [31]: 61.5%
- viability, T/C [32]: 62.7%
- viability, T/C [33]: 54.6%
- viability, T/C [34]: 55.8%
- viability, T/C [35]: 36.6%
- viability, T/C [36]: 1.29%

- IC50 (second compound 0.0316 µM): > 10 µM
- IC50 (second compound 0.1 µM): > 10 µM
- IC50 (second compound 0.316 µM): > 10 µM
- IC50 (second compound 1 µM): > 10 µM
- IC50 (second compound 3.16 µM): > 10 µM
- IC50 (second compound 10 µM): > 10 µM
SMILES: Cc1cccc(N(C)C(=O)C2C(O)CCN2c2nc(C)cc(C(F)(F)F)c2C#N)c1 (stereo unspecified) + Cc1cnc(CNC(=O)c2c(=O)c3ccc(N4CCCN(C)CC4)nc3n3c2sc2ccccc23)cn1
- viability, T/C [1]: 93.7%
- viability, T/C [2]: 107%
- viability, T/C [3]: 108%
- viability, T/C [4]: 99.7%
- viability, T/C [5]: 104%
- viability, T/C [6]: 96.9%
- viability, T/C [7]: 107%
- viability, T/C [8]: 106%
- viability, T/C [9]: 112%
- viability, T/C [10]: 98.6%
- viability, T/C [11]: 91.8%
- viability, T/C [12]: 108%
- viability, T/C [13]: 103%
- viability, T/C [14]: 84%
- viability, T/C [15]: 89.3%
- viability, T/C [16]: 93.9%
- viability, T/C [17]: 101%
- viability, T/C [18]: 82.5%
- viability, T/C [19]: 83.6%
- viability, T/C [20]: 95.6%
- viability, T/C [21]: 88.3%
- viability, T/C [22]: 88.4%
- viability, T/C [23]: 93.9%
- viability, T/C [24]: 94.3%
- viability, T/C [25]: 84%
- viability, T/C [26]: 70.5%
- viability, T/C [27]: 79.1%
- viability, T/C [28]: 72.8%
- viability, T/C [29]: 79.4%
- viability, T/C [30]: 73.3%
- viability, T/C [31]: 92.7%
- viability, T/C [32]: 90.9%
- viability, T/C [33]: 84.8%
- viability, T/C [34]: 72.6%
- viability, T/C [35]: 103%
- viability, T/C [36]: 84.3%
